Assay results published in patent US20110301236A1, “HeLa-C3 Apoptosis Inducer from Garcinia paucinervis” (priority 2010, published 2011).

What was measured:
Assay type in all cases: cell-based
[1] = test system: HeLa-C3 cells; experiment: Cell morphology changes of HeLa-C3 cells during compound treatment (FIG. 2)
Experimental: Refereeing to FIG. 2, Cell morphology changes during the course of compound treatment. HeLa-C3 cells were treated with compounds of 2 at 25 μM, an anticancer drug, pacilitaxel at 500 nM (serving as a positive control), and a control without any drug for 24, 48, and 72 h. Various cell morphologies were recorded at the indicated time points.

[2] = test system: HeLa-C3 cells; experiment: Apoptosis-inducing effect in HeLa-C3 cells (caspase-3 FRET biosensor, YFP/CFP emission ratio); settings: for Apoptotic effect at 10 μM / Apoptotic effect at 25 μM / Apoptotic effect at 50 μM / Apoptotic effect at 100 μM: 72 h, HeLa-C3 cells, YFP/CFP emission ratio
Experimental: The bioassay method was described in our previous paper with some modifications. All the testing samples were dissolved in DMSO to make stock solutions. The concentration of each stock was at least 1000 times higher than the working concentration. HeLa-C3 cells, which allows detection of apoptotic cell death involving caspase activation, were cultured in minimum essential medium (MEM) containing 10% fetal bovine serum, 100 U/mL penicillin, […] streptomycin, in a 5% CO2 humidity incubator at 37° C. The sample well for apoptotic activity testing was prepared by seeding a well on a 96-well plate with 7500 HeLa-C3 cells suspended in 100 μL culture medium. After 12-16 h incubation, the old medium was removed and 100 μL freshly prepared culture medium containing the testing sample at a certain working concentration was added to both the sample well and the corresponding background well. Culture medium containing 0.1% DMSO was the negative control while 500 nM paclitaxel was the positive control. After that, the plate was read repeatedly by a Perkin-Elmer Victor reader with excitation wavelength at 440±10 nm and emission wavelength at 486±8 nm for CFP (cyan fluorescent protein) and 535±8 nm for YFP (yellow fluorescent protein) at indicated time points. The data acquisition duration was up to 72 h. The YFP/CFP emission ratio was then calculated. The background fluorescence was measured from the wells containing only medium. After subtracting the background fluorescence from the recorded signal, net YFP and CFP readings were obtained. In this paper, Y/C emission ratio is used to represent the effect of FRET, which is equal to the net YFP reading divided by the net CFP reading from the same well. If YFP/CFP emission ratio was reduced below 3, the testing sample was considered as a good apoptotic inducer at that concentration. All samples were tested in triplicate. The whole experiment was repeated for three times.
The biological activity of these new compounds was evaluated for apoptosis inducing effects using genetically engineered HeLa-C3 cells that can produce a fluorescent biosensor capable of detecting caspase-3 activation. These cells emit a green light under normal growth conditions and change to a blue light when caspase-3 is activated during apoptosis to cleave the sensor protein inside the cells. This color change allows one to use a fluorescent plate reader to directly detect the activation level of caspase-3 in HeLa-C3 cells during the course of the compound treatment in a noninvasive way. Based on our previous test results, the emission ratio of YFP (yellow fluorescent protein)/CFP (cyanfluorescent proteins) is usually between 6 and 8 in normal cells, and this ratio will decrease to a value below 3 if a compound can activate caspase-3 and kill cancer cells. Therefore, any compound that can reduce the YFP/CFP emission ratio to a value below 3 is considered positive in activating apoptosis.

[3] = test system: HeLa cells; experiment: MTT assay, cell growth inhibition on HeLa cells; settings: 72 h
Experimental: The measurement of the IC50 was conducted on the isolated compounds using MTT assay. MIT powder was dissolved in PBS at a concentration of 5 mg/mL. For MTT assay, 10 μL of MTT solution was added into each well of a 96-well plate. After 2 h incubation at 37° C., 100 μL 10% SDS solution with 0.01 M HCl was added to dissolve the purple crystals. After 24 h incubation, the optical density (OD) readings at 595 nm were measured using a plate reader. Firstly, 2,500 HeLa cells suspended in 100 μL MEM medium were seeded respectively in a 96-well plate. After 24 h incubation, fresh medium contains various concentrations of each compound were added into the 96-well plate and changed the old medium. The concentrations applied except compound 1 which was from 200 μM to 3.125 μM were ranged from 100 μM to 1.5625 μM, which was achieved by doing two-fold dilutions for 6 times. The OD values of the control group at 0 h and 72 h together with the compound treated groups at 72 h from the MTT assay were measured using a plate reader. IC50 is the concentration of a compound inhibiting 50% of the cell growth.

Row | IC50 [3] | IC50 ([3]; Homo sapiens, HeLa) | SMILES | Cell morphology ([1]; 500 nM (positive control), 24, 48 and 72 h) | Apoptotic effect at 10 μM [2] | Apoptotic effect at 25 μM [2] | Apoptotic effect at 50 μM [2] | Apoptotic effect at 100 μM [2] | caspase-3 activation in HeLa-C3 cells ([2]; within 72 h at 25 μM) | Cell morphology ([1]; 25 μM, 24, 48 and 72 h)
1 |  |  | CC(=O)O[C@H]1C(=O)[C@@]2(C)[C@H]([C@H](OC(=O)c3ccccc3)[C@]3(O)C[C@H](OC(=O)[C@H](O)[C@@H](NC(=O)c4ccccc4)c4ccccc4)C(C)=C1C3(C)C)[C@]1(OC(C)=O)CO[C@@H]1C[C@@H]2O [paclitaxel, reference compound] | shrinkage and detached morphology |  |  |  |  |  | 
2 | 9.5 ± 0.2 µM | < 10 µM | COC(=O)c1c(O)cc(O)cc1Oc1c(O)c(OC)cc(CC=C(C)C)c1OC [Compound 2, Paucinervin B] |  | − (“−” means the YFP/CFP emission ratio of compound treated HeLa-C3 cells was above 3 at 72 h) | + (“+” means the YFP/CFP emission ratio of compound treated HeLa-C3 cells was below 3 at 72 h) | + (“+” means the YFP/CFP emission ratio of compound treated HeLa-C3 cells was below 3 at 72 h) | + (“+” means the YFP/CFP emission ratio of compound treated HeLa-C3 cells was below 3 at 72 h) | could activate caspase-3 | shrinkage and detached morphology
3 | 95.6 ± 5.5 µM |  | COc1c(O)c(CC=C(C)C)cc2c1Oc1cc(O)c(CC=C(C)C)c(O)c1C(=O)O2 [Compound 1, Paucinervin A] |  | − (“−” means the YFP/CFP emission ratio of compound treated HeLa-C3 cells was above 3 at 72 h) | − (“−” means the YFP/CFP emission ratio of compound treated HeLa-C3 cells was above 3 at 72 h) | − (“−” means the YFP/CFP emission ratio of compound treated HeLa-C3 cells was above 3 at 72 h) | + (“+” means the YFP/CFP emission ratio of compound treated HeLa-C3 cells was below 3 at 72 h) |  | 
